What was measured:
[1] = tested on: mice; experiment: Electric shock induced convulsions; format: in vivo, Swiss mice
Method: Convulsion were induced by a single electroshock (50 Hz in frequency, 0.5 ms pulse width, 50 mA current for 0.3 s) applied through bi-polar electrodes attached to the ear pinna on both side using a pulse generator (Ugo Basile, Italy). The convulsive activity (determined by loss of tonic extensor seizure) was recorded in control (untreated) and Compound I were treated (before electro-shock application) animals [Achliya, G S, Wadodkar, S G, Darle, A K., Evaluation of CNS activity of Bramhi Ghrita. Indian J. Pharmacol. 37 (2005) 33-36].
Anti-convulsant activity was measured by electric shock induced seizure. Five Swiss mice were used for one dose of drug. Convulsion were induced by a single electroshock (50 Hz in frequency, 0.5 ms pulse width, 50 mA current for 0.3 s) applied through bi-polar electrodes attached to the ear pinna on both side by a pulse generator (Ugo Basile, Italy) Test drug were administered orally 60 min before electroshock application, and convulsive activity was determined by loss of tonic extensor seizure.

[2] = tested on: PDE-4; experiment: Phosphodiesterase 4 assay, [3H]cAMP SPA enzyme assay, enzyme preparation from rat heart; format: biochemical
Method: For phosphodiesterase (PDE-4) assay, enzyme preparations were performed from rat heart (Ko et al 2004, Biochemical Pharmacology 68:2087-2094). Heart was excised from anesthetized rat and transfer into normal saline solution. Heart weighing 687 mg was taken and homogenized in 2.5 volumes of homogenization buffer containing 20 mM Tris-Cl, 50 mM NaCl, 2 mM EDTA, 0.1 mM PMSF, […], protease inhibitors 1 μg/μl. The homogenate was centrifuged at 500×g for 5 minute at 4° C. Then sup was taken for further centrifuged at 40,000×g for 30 minute (ultra centrifugation). After centrifugation supernatant was collected for phosphodiesterase assay. Protein concentration was estimated and for each assay, 2.5 μg protein (PDE enzyme preparation) was used. All compounds tested for PDE 4 activity were dissolved in DMSO.
Phosphodiesterase 4 assay: Phosphodiesterase 4 assay was conducted with [^3H] cAMP SPA enzyme assay (GE Amersham, UK) using 2.5 μg enzyme preparation for each well. Into each well 60 μl water, 10 μl assay buffer supplied with the kit, 10 μl compound (inhibitor), 10 μl PDE enzyme or homogenizing buffer (blank) and […] radiolabel led cAMP ([^3H]cAMP, GE Amersham, UK) were added. To check activity of the enzyme without inhibitor (compound) 10 μl DMSO was added in place of inhibitor to a separate well. The reaction mixtures were incubated for […] at 30° C. The reaction was stopped by adding 50 μl SPA bead supplied with the kit. It was then mixed well and allowed to stand at room temperature for 20 min. Breakdown of cAMP in each tube was monitored by β counter. The reading in each tube was obtained in counts per minute (CPM). The reading of the blank tube (without enzyme) was subtracted from each tube to normalize the counts. The enzyme activity was calculated by considering the CPM reading without any inhibitor (compound) as 100.

[3] = tested on: mice; experiment: Pentobarbitone induced sleeping time; format: in vivo; conditions: pentobarbitone 50 mg/kg (i.p) alone
Method: Compound I was administered to mice perorally. […] were administered with sodium pentobarbitone (50 mg/kg, ip). Sleeping time (No righting reflex) (in min) was determined for the control (untreated) and D8 treated animals [Montilla, M P., Cabo, J., Navarro, M C., Risco, S., Jimmenez R S., Aneires, J., The protective and curative action of Withania frutescens leaf extract against CCl4-induced hepatotoxicity. Phytother. Res. 4 (1990) 212-215].

Compound: CCC1(c2ccccc2)C(=O)NC(=O)NC1=O [Phenobarbitone, reference compound]
- Convulsions Clonic ([1]; 30 mg/kg p.o.): 0/5
- Convulsions Tonic ([1]; 30 mg/kg p.o.): 0/5
- Mortality ([1]; 30 mg/kg p.o.): 0/5
- anti-convulsant activity ([1]; positive control): significant anti-convulsant activity

Compound: COc1cc(COC(C)=O)cc2c1[nH]c1ccccc12 [V]
- % of Inhibition ([2]; 0.1 μg/ml): 0%
- % of Inhibition ([2]; 1 μg/ml): 11.80%
- % of Inhibition ([2]; 10 μg/ml): 44.2%

Compound: CCCC(C)C1(CC)C(=O)NC(=O)NC1=O (centres unmarked) [Pentobarbitone]
- Sleeping Time (Minutes ± SEM) [3]: 75.6 ± 9.4 min
